Measured values as given in paper PMC12586182 (Frontiers in Oncology, 2025).

Columns and labels:
Assay in all cases: Kinase panel profiling at 1 µmol/L (mobility shift assay, Carna)
Assay type in all cases: biochemical
Settings in all cases: 1 µmol/L of BTK inhibitor
[1] = target: T1, PKCδ (Homo sapiens, UniProt Q05655)
T1 construct: purchased Carna Biosciences

[2] = target: T2, BLK (Homo sapiens, UniProt P51451)
T2 construct: purchased Carna Biosciences

[3] = target: T3, GSK3α (Homo sapiens, UniProt P49840)
T3 construct: purchased Carna Biosciences

[4] = target: T4, TSSK3 (Homo sapiens, UniProt Q96PN8)
T4 construct: purchased Carna Biosciences
T4 sequence (Q96PN8 1-268): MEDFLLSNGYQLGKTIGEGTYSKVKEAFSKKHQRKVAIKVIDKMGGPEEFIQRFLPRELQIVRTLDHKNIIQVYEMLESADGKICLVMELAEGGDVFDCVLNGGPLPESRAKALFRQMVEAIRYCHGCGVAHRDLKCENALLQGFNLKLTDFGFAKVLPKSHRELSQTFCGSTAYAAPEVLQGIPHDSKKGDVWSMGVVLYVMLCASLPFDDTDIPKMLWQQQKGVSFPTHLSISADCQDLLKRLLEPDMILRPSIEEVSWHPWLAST

[5] = target: T5, SYK (Homo sapiens, UniProt P43405)
T5 construct: purchased Carna Biosciences

[6] = target: T6, TRKB (Homo sapiens, UniProt Q16620)
T6 construct: purchased Carna Biosciences

[7] = target: T7, LYNb (Homo sapiens, UniProt P07948)
T7 construct: purchased Carna Biosciences

[8] = target: T8, EPHA7 (Homo sapiens, UniProt Q15375)
T8 construct: purchased Carna Biosciences

[9] = target: T9, FLT4 (Homo sapiens, UniProt P35916)
T9 construct: purchased Carna Biosciences

[10] = target: T10, JAK2 (Homo sapiens, UniProt O60674)
T10 construct: purchased Carna Biosciences
T10 sequence (O60674 whole entry): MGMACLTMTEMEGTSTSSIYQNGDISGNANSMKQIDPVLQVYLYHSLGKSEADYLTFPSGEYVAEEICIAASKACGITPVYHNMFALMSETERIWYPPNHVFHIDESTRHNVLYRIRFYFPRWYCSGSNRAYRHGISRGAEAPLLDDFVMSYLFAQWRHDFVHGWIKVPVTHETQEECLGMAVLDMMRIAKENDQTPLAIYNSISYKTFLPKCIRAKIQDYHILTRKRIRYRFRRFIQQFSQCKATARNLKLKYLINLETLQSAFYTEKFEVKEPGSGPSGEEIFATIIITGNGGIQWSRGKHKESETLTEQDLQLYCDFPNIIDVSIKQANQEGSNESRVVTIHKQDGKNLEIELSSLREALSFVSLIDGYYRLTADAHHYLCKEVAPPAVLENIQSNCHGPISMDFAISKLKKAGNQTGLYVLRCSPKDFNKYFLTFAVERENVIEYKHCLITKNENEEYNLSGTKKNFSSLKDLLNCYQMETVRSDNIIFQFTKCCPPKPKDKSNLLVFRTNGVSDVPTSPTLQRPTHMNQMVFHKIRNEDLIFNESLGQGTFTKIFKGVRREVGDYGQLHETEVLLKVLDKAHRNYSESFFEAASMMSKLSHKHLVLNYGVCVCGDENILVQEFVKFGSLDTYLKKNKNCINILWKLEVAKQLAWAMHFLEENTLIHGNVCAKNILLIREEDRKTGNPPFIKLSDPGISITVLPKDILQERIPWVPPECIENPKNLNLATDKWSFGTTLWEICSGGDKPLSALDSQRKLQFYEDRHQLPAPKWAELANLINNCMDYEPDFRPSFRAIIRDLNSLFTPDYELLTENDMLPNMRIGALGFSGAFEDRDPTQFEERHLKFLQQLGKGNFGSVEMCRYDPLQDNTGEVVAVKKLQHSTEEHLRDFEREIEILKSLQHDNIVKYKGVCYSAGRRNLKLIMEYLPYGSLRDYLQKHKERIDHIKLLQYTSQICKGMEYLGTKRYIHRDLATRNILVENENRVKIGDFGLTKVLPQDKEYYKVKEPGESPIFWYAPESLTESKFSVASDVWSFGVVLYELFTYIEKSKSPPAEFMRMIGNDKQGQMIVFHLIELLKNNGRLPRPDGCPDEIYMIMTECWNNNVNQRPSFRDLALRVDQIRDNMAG

[11] = target: T11, WNK1 (Homo sapiens, UniProt Q9H4A3)
T11 construct: purchased Carna Biosciences
T11 sequence (Q9H4A3 whole entry): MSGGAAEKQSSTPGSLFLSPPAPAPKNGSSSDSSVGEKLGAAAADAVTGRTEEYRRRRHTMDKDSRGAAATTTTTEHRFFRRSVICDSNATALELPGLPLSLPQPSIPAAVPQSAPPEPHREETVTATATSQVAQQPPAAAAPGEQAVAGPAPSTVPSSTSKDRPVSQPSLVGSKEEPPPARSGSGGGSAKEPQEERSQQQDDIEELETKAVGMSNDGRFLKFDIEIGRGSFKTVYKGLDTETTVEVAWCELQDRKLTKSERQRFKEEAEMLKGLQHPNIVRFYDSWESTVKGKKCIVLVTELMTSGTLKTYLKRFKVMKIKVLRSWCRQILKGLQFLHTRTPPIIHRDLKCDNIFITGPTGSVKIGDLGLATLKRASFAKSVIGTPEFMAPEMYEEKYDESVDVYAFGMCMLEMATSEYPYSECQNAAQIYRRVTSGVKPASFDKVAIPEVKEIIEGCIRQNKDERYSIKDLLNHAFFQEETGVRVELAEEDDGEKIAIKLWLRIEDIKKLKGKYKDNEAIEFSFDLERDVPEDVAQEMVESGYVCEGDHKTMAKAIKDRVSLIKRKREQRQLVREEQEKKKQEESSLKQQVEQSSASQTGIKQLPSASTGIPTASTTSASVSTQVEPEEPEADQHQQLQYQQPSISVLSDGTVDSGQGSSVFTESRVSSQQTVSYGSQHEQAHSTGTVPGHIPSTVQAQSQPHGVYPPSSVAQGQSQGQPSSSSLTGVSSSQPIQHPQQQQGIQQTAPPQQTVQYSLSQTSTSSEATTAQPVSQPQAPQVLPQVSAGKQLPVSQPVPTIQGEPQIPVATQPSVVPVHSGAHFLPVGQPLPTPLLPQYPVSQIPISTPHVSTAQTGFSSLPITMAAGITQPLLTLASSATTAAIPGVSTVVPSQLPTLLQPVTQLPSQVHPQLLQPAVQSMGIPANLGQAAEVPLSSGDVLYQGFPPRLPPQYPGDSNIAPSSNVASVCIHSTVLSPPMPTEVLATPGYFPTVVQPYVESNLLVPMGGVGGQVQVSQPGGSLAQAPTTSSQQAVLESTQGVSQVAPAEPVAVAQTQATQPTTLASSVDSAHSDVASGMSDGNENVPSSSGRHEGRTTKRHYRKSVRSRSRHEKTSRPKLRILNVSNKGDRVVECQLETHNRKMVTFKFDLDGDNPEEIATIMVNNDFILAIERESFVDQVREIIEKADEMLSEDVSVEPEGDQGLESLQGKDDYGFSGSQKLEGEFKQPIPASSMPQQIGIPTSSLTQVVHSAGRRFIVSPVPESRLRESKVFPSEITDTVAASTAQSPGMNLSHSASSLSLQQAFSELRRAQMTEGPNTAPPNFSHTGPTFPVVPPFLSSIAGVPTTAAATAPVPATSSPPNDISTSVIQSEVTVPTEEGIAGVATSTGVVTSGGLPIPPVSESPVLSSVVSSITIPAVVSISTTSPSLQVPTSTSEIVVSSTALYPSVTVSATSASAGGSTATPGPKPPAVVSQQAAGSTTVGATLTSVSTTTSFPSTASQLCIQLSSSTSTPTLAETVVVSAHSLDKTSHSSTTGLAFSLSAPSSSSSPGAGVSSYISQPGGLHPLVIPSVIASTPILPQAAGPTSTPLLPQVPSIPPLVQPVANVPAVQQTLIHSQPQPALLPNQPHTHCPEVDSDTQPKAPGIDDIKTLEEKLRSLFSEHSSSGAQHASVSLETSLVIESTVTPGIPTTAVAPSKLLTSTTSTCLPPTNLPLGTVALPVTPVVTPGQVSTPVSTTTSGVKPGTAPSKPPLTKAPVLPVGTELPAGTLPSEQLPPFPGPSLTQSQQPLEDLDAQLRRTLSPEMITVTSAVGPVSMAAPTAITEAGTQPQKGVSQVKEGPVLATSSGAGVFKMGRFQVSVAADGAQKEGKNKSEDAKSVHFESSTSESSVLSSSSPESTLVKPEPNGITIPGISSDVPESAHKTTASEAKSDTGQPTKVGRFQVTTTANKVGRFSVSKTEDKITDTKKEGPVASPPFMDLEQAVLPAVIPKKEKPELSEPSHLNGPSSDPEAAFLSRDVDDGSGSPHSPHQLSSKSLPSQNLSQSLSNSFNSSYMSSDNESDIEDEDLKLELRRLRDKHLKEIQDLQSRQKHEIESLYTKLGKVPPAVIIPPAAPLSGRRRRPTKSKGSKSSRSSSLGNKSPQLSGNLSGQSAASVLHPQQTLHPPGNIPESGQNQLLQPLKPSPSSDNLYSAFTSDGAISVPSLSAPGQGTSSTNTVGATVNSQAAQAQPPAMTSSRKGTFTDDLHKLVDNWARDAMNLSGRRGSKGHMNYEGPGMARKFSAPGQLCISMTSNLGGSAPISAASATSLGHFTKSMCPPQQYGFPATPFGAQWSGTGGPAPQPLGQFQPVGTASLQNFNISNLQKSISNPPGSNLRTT

[12] = target: T12, ROS (Homo sapiens, UniProt P08922)
T12 construct: purchased Carna Biosciences

[13] = target: T13, IRR (Homo sapiens, UniProt P14616)
T13 construct: purchased Carna Biosciences
T13 sequence (P14616 27-1297): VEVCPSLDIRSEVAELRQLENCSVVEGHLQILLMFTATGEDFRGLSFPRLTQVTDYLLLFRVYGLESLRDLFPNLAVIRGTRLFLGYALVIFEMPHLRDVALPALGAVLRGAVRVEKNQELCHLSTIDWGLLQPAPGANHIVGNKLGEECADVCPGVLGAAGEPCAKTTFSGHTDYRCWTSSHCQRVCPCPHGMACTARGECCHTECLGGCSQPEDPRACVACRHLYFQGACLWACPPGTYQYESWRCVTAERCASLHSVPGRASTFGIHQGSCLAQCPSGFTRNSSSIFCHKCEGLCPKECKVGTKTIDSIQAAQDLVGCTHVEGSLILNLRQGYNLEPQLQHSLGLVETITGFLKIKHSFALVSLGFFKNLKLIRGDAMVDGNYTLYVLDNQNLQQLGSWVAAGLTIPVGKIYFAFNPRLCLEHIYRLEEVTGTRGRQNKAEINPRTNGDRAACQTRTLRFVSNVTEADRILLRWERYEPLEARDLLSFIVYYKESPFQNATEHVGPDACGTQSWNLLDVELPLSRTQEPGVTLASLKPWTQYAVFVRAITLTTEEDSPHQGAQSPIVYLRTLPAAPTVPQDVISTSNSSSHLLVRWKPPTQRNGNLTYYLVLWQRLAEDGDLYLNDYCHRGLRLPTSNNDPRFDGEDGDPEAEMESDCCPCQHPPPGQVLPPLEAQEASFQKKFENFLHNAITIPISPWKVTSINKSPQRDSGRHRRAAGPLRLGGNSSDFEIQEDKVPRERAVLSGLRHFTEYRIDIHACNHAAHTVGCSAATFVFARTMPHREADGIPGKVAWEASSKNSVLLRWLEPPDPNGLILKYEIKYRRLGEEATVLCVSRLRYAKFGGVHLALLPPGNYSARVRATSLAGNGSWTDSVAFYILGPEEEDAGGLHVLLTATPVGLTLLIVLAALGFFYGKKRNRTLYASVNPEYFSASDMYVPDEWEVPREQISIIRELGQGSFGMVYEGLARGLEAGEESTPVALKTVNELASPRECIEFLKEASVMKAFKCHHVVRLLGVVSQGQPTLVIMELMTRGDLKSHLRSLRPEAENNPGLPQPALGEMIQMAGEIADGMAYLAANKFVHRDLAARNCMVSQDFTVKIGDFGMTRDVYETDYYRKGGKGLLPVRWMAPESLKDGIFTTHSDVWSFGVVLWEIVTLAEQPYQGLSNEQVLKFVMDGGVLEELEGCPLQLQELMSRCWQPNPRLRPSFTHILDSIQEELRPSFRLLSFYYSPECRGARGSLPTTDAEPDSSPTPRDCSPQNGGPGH

[14] = target: T14, MST1 (Homo sapiens, UniProt Q13043)
T14 construct: purchased Carna Biosciences
T14 sequence (Q13043 1-487): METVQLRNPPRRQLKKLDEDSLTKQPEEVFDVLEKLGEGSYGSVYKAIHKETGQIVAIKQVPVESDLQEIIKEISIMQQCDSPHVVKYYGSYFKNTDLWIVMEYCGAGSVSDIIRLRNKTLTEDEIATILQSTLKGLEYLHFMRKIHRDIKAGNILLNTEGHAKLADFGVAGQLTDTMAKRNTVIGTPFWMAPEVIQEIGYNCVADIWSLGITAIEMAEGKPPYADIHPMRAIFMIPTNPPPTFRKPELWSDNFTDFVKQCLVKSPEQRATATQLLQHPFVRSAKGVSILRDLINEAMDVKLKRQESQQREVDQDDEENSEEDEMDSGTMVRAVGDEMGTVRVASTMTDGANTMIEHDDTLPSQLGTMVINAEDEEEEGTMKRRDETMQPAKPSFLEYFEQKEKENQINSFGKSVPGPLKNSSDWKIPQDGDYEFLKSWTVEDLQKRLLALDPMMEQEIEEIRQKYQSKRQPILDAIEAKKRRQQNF

[15] = target: T15, TBK1 (Homo sapiens, UniProt Q9UHD2)
T15 construct: purchased Carna Biosciences
T15 sequence (Q9UHD2 1-729): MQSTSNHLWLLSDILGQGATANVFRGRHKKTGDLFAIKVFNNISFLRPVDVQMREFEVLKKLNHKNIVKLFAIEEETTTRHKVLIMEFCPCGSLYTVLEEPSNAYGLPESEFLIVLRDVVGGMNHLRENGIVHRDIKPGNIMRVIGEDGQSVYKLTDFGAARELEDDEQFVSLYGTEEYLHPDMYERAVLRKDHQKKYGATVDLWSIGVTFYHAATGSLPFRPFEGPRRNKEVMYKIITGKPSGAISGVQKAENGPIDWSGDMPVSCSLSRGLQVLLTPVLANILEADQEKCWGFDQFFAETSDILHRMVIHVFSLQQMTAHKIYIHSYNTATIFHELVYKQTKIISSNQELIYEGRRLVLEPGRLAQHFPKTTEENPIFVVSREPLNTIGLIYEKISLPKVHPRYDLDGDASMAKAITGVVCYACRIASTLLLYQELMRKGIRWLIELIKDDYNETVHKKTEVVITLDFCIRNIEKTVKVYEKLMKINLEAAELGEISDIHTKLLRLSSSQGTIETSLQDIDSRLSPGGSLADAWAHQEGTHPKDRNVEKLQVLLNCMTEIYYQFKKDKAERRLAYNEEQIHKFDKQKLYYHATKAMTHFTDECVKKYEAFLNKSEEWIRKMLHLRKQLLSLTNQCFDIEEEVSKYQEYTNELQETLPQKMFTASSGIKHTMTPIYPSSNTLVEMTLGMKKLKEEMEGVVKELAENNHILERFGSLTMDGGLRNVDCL

[16] = target: T16, CK1ε (Homo sapiens, UniProt P49674)
T16 construct: purchased Carna Biosciences

[17] = target: T17, CDK2/CycA2 (Homo sapiens, UniProt P24941)
T17 construct: purchased Carna Biosciences

[18] = target: T18, PKACβ (Homo sapiens, UniProt P22694)
T18 construct: purchased Carna Biosciences

Row | SMILES | Percentage inhibition of kinase enzyme activity [1] [%] | Percentage inhibition of kinase enzyme activity [2] [%] | Percentage inhibition of kinase enzyme activity [3] [%] | Percentage inhibition of kinase enzyme activity [4] [%] | Percentage inhibition of kinase enzyme activity [5] [%] | Percentage inhibition of kinase enzyme activity [6] [%] | Percentage inhibition of kinase enzyme activity [7] [%] | Percentage inhibition of kinase enzyme activity [8] [%] | Percentage inhibition of kinase enzyme activity [9] [%] | Percentage inhibition of kinase enzyme activity [10] [%] | Percentage inhibition of kinase enzyme activity [11] [%] | Percentage inhibition of kinase enzyme activity [12] [%] | Percentage inhibition of kinase enzyme activity [13] [%] | Percentage inhibition of kinase enzyme activity [14] [%] | Percentage inhibition of kinase enzyme activity [15] [%] | Percentage inhibition of kinase enzyme activity [16] [%] | Percentage inhibition of kinase enzyme activity [17] [%] | Percentage inhibition of kinase enzyme activity [18] [%]
1 | CC#CC(=O)N1CCC[C@H]1c1nc(-c2ccc(C(=O)Nc3ccccn3)cc2)c2c(N)nccn12 [acalabrutinib] | -8.64 | 8.43 | 2.47 | -7.85 | -19.36 | 13.81 | -1.97 | -3.54 | 1.41 | -9.14 | 5.36 | 1.79 | -0.87 | 3.91 | 2.14 | -10.49 | -5.19 | -13.09
2 | C=CC(=O)N1CCC([C@@H]2CCNc3c(C(N)=O)c(-c4ccc(Oc5ccccc5)cc4)nn32)CC1 [zanubrutinib] | – | 98.41 | – | – | – | – | – | -7.84 | -6.85 | 9.66 | – | – | 34.27 | – | – | – | – | –
3 | O=C(c1ccc(Oc2ccccc2)cc1Cl)c1c[nH]c2ncnc(N[C@@H]3CC[C@@H](CO)OC3)c12 [nemtabrutinib] | 6.96 | 102.70 | -3.85 | 2.56 | 3.99 | 101.64 | 66.12 | 94.05 | 90.70 | 14.34 | 8.78 | 60.67 | 77.13 | 96.55 | 1.71 | 95.45 | -1.69 | 12.59
4 | COc1ccc(F)cc1C(=O)NCc1ccc(-c2nn([C@@H](C)C(F)(F)F)c(N)c2C(N)=O)cc1 [pirtobrutinib] | -3.98 | 30.87 | -5.30 | -1.40 | -13.08 | 4.46 | 26.06 | -9.86 | 4.92 | 0.45 | -5.02 | 3.20 | -6.47 | 10.97 | 2.58 | 15.87 | -4.56 | -8.02
5 | C=CC(=O)N1CCC[C@@H](n2nc(-c3ccc(Oc4ccccc4)cc3)c3c(N)ncnc32)C1 [ibrutinib] | 0.52 | 101.19 | 2.24 | -3.87 | -19.83 | 25.78 | 100.13 | 6.99 | 90.82 | 0.41 | 2.30 | 4.82 | 11.54 | 4.14 | 0.83 | 49.55 | -11.88 | -9.04
